Assay: xn = mol fraction of the nth substance listed
Details: 101.3 kPa

NCCNCCN + CCCC[n+]1ccn(C)c1.F[B-](F)(F)F
viscosity [mPa·s]
Details	298.15 K	303.15 K	308.15 K	313.15 K	318.15 K	323.15 K	328.15 K	333.15 K
x2 = 0	–	4.5	3.86	3.4	3.05	2.7	2.45	2.032
x2 = 0.051	6.71	5.56	4.85	4.31	–	3.55	3.2	2.67
x2 = 0.1986	12.1	10.27	8.94	–	7.06	6.33	5.68	–
x2 = 0.2998	17.35	–	–	10.9	9.7	–	–	–
x2 = 0.3995	–	19.78	16.7	–	12.77	–	–	8.72
x2 = 0.4992	31.5	–	22.15	–	16.63	14.65	–	–
x2 = 0.5905	–	–	28.1	24.07	20.88	–	15.53	13.88
x2 = 0.6974	52.6	–	36.3	–	26.6	23.13	–	–
x2 = 0.8012	67.1	56.4	46	38.8	33.2	28.5	23.39	21.3
x2 = 0.8948	82.6	–	55.7	46.5	39.2	33.3	26.7	24.18
x2 = 0.9496	91.9	76.4	60.4	49.8	42	–	27.2	–

CCCC[n+]1ccn(C)c1.F[B-](F)(F)F + NCCNCCN
x1 = 1
Details	viscosity [mPa·s]
313.15 K	51.4
318.15 K	42.1
323.15 K	34.8
333.15 K	24.7
